The text below walks through data of patent US11046686B2, “Thiadiazole IRAK4 compounds” (Gilead Sciences, Inc., priority 2018, dated 2021).

Assay [1] has as its system TNFα. In words: IRAK4 Monocyte TNFα Cell Based Assay. The arrangement: species or system human. A digest of the protocol:
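Human monocytes (5,000/well) pretreated with compound 1 h at 37 °C (0.1% DMSO final), then stimulated with 50 pg/ml LPS for 4 h. Secreted TNFα measured by TR-FRET two-antibody detection after overnight incubation at room temperature; % control relative to unstimulated and LPS-stimulated wells.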

Assay [2] deals with IRAK4 enzyme (Homo sapiens (Human), UniProt Q9NWZ3). In words: IRAK4 Biochemical Assay (TR-FRET, STK1 KinEASE). A digest of the protocol:
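IRAK4 (0.75 nM) preincubated 15 min with compound and […] STK1 peptide, then started with 500 μM ATP in HEPES pH 7.0 buffer with MgCl2, DTT, BSA, NP-40; 120 min at room temperature.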
(In general: In TR-FRET formats the signal depends on donor and acceptor labels being close together.)

Where [3] appears, read: Homo sapiens, Monocyte, human monocytes, second part of Table 2, compounds 33-343, unit inferred, read-out: EC50 MONO TNF HTRF.

Where two headings read alike, the source gives them in different places.

IRAK4 enzyme, sequence (Q9NWZ3 whole entry): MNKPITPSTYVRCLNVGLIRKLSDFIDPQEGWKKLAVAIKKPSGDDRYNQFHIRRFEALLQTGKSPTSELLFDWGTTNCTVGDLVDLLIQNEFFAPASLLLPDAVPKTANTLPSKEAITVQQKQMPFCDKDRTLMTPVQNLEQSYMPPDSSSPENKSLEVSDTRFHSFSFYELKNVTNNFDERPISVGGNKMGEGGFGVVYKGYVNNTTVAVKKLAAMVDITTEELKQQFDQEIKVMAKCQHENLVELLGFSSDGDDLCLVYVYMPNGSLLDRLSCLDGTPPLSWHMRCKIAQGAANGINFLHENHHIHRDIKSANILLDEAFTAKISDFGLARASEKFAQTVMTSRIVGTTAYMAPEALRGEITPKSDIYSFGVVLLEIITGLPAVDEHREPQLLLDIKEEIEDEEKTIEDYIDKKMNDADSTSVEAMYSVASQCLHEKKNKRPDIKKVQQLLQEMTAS

For the compound `CC(=O)N[C@@H]1[C@@H]2CC[C@H]1CN(c1nnc(-c3cnc(-c4ccc5cnc(N[C@@H]6CCCC[C@@H]6N)nn45)cc3N[C@H](C)C#N)s1)C2` [Example 61, N-((1R,5S,8S)-3-(5-(6-(2-(((1R,2S)-2-aminocyclohexyl)amino)pyrrolo[2,1-f][1,2,4]triazin-7-yl)-4-(((R)-1-cyanoethyl)amino)pyridin-3-yl)-1,3,4-thiadiazol-2-yl)-3-azabicyclo[3.2.1]octan-8-yl)acetamide], the EC50 (in general, the concentration needed to bring the measured effect to its halfway point) in assay [1] (setting [3]) is 5.3 nM. For the same compound, in assay [2], the IC50 (commonly the concentration that gives 50% inhibition) came to 1.01 nM.
For `CC(=O)N1CCC(c2nnc(-c3cnc(-c4ccc5cc(C#N)cnn45)cc3NC(C)C)s2)CC1` [Example 128, 7-(5-(5-(1-acetylpiperidin-4-yl)-1,3,4-thiadiazol-2-yl)-4-(isopropylamino)pyridin-2-yl)pyrrolo[1,2-b]pyridazine-3-carbonitrile] the same measures were 18.8 nM and 0.59 nM.
As for `CC(=O)NC12C3C4C1C1C2C3C41c1nnc(-c2cnc(-c3ccc4cc(C#N)cnn34)cc2NC(C)C)s1` (centres unmarked) [Example 197, N-(4-(5-(6-(3-cyanopyrrolo[1,2-b]pyridazin-7-yl)-4-(isopropylamino)pyridin-3-yl)-1,3,4-thiadiazol-2-yl)cuban-1-yl)acetamide], the EC50 in assay [1] (setting [3]) was found to be 32.9 nM. The IC50 in assay [2] was 1.57 nM.
Consider `CC(C)Nc1cc(-c2ccc3cc(C#N)cnn23)ncc1-c1nncs1` [Example 30, 7-(4-(isopropylamino)-5-(1,3,4-thiadiazol-2-yl)pyridin-2-yl)pyrrolo[1,2-b]pyridazine-3-carbonitrile], for which the EC50 in assay [1] (Homo sapiens, Monocyte, human monocytes, LPS stimulated, compounds 1-32, read-out: EC50 TNF) amounted to 78 nM. The IC50 in assay [2] (compounds 1-32, read-out: IC50 HTRF) is 1 nM.
As to `CC(=O)NC1CCC2(CC1)CN(c1nnc(-c3cnc(-c4ccc5cc(C#N)cnn45)cc3NC3CCOCC3)s1)C2` [Example 79, N-(2-(5-(6-(3-cyanopyrrolo[1,2-b]pyridazin-7-yl)-4-((tetrahydro-2H-pyran-4-yl)amino)pyridin-3-yl)-1,3,4-thiadiazol-2-yl)-2-azaspiro[3.5]nonan-7-yl)acetamide], the EC50 in assay [1] (setting [3]) stood at 2.6 nM. The compound further yielded an IC50 in assay [2] of 0.48 nM.
With `CC(=O)N[C@@H]1C[C@@H]2CC[C@H]1N2c1nnc(-c2cnc(-c3ccc4cc(C#N)cnn34)cc2NC(C)C)s1` [Example 141, N-((1R,2R,4S)-7-(5-(6-(3-cyanopyrrolo[1,2-b]pyridazin-7-yl)-4-(isopropylamino)pyridin-3-yl)-1,3,4-thiadiazol-2-yl)-7-azabicyclo[2.2.1]heptan-2-yl)acetamide], the EC50 in assay [1] (Homo sapiens, Monocyte, read-out: EC50 MONO TNF HTRF) came to 18.6 nM. This compound also yielded an IC50 in assay [2] of 0.5 nM.
Turning to `CC(=O)NC12CCC(c3nnc(-c4cnc(-c5ccc6cc(C#N)cnn56)cc4NC4COC4)s3)(CC1)CC2` [Example 70, N-(4-(5-(6-(3-cyanopyrrolo[1,2-b]pyridazin-7-yl)-4-(oxetan-3-ylamino)pyridin-3-yl)-1,3,4-thiadiazol-2-yl)bicyclo[2.2.2]octan-1-yl)acetamide], the EC50 in assay [1] (setting [3]) was 8.8 nM. In addition, in assay [2], inhibition was half-maximal at 0.58 nM (IC50).
For `CC(C)Nc1cc(-c2ccc3cc(C#N)cnn23)ncc1-c1nnc(C(=O)N2CC[C@@H](NC(=O)OC(C)(C)C)C2)s1` [Example 222, tert-butyl (R)-(1-(5-(6-(3-cyanopyrrolo[1,2-b]pyridazin-7-yl)-4-(isopropylamino)pyridin-3-yl)-1,3,4-thiadiazole-2-carbonyl)pyrrolidin-3-yl)carbamate] the same measures were 1780 nM and 1.79 nM.
Regarding `CC(C)(O)[C@H]1C[C@@H]1c1nnc(-c2cnc(-c3ccc4cc(C#N)cnn34)cc2NC2COC2)s1` (single isomer, unassigned; isomer 1) [136 Isomer 1], the EC50 in assay [1] (human monocytes, second part of Table 2, compounds 33-343, unit inferred, read-out: EC50 MONO TNF HTRF) came to 4.2 nM. For the same compound, the IC50 in assay [2] (second part of Table 2, compounds 33-343, unit inferred, read-out: IC50 IRAK4-HTBS) was 0.57 nM.
`CC(C)Nc1cc(-c2ccc3cc(C#N)cnn23)ncc1-c1nnc(N2C[C@H]3C[C@@H]2CO3)s1` [Compound 237, 7-(5-(5-((1R,4R)-2-oxa-5-azabicyclo[2.2.1]heptan-5-yl)-1,3,4-thiadiazol-2-yl)-4-(isopropylamino)pyridin-2-yl)pyrrolo[1,2-b]pyridazine-3-carbonitrile]: the EC50 in assay [1] (setting [3]) is 8.4 nM. The compound also came in with a half-maximal inhibitory concentration (IC50) in assay [2] of 0.14 nM.
